Reference: US20150038545A1, “HYDROXYPHENYL PYRROLE COMPOUNDS CONTAINING AN HYDROXAMIC ACID AS HDAC INHIBITORS AND MEDICINAL APPLICATIONS THEREOF” (UNIVERSIDAD DEL PAÍS VASCO, priority 2011, published 2015)

Compound	melting point
O=C(CCCCCNC(=O)c1[nH]c(-c2ccccc2)cc1-c1ccc(O)cc1)NO [Example 1, N-(6-(hydroxyamino)-6-oxohexyl)-3-(4-hydroxyphenyl)-5-phenyl-1H-pyrrole-2-carboxamide]	99 to 100 °C
O=C(CCCCCNC(=O)c1[nH]c(-c2ccc(O)cc2)cc1-c1ccccc1)NO [Example 2, N-(6-(hydroxyamino)-6-oxohexyl)-5-(4-hydroxyphenyl)-3-phenyl-1H-pyrrole-2-carboxamide]	224 to 225 °C
